Experimental data as given in EP0246786A1, “N-1 subsituted sulfonylaminocarbonyl, C-4 substituted monobactams” (THE UPJOHN COMPANY, priority 1986, dated 1987).
In brackets after ≈: the same amount, converted by molar mass. Structures can show the parent of a compound that is named as a salt. Where two headings read alike, the source gives them in different places.

Legend:
Assay in all cases: MIC by agar dilution (in vitro antimicrobial testing)
Format in all cases: cell-based
Ps. aeruginosa = details: Pseudomonas aeruginosa, 20 h, 35°C, read-out: Minimum Inhibitory Concentration
Protocol: (§1) Compounds of the invention are tested for in vitro antimicrobial activity using standard testing procedures such as the determination of minimum inhibitory concentration (MIC) by agar dilution as described in "Methods for Dilution Antimicrobial Susceptibility Tests for Bacteria That Grow Aerobically" (MF-T) Published January 1983 by the National Committee for Clinical Laboratory Standards, 771 East Lancaster Avenue, Villanova, PA 19084. Briefly, MIC values are determined in unsupple- mented Mueller Hinton Agar (MHA). The compounds tested are diluted serially into molten MHA at 47°C. The agar is poured into petri dishes and allowed to harden. The various bacteria used for testing are grown overnight on MHA at 35°C and transferred to Tryptiease Soy Broth (TSB) until a turbidity of 0.5 McFarland standard is obtained. The bacteria are diluted one to twenty in TSB and inoculated on the plates (1 µl using a Steers replicator).

K. oxytoca = details: Klebsiella oxytoca, read-out: Minimum Inhibitory Concentration
Protocol: as §1

E. coli = details: Escherichia coli, 20 h, 35°C, read-out: Minimum Inhibitory Concentration
Protocol: as §1

K.pneumoniae = details: Klebsiella pneumoniae, read-out: Minimum Inhibitory Concentration
Protocol: as §1

[1] = Ps. aeruginosa Culture No. 231, Mueller Hinton Agar
[2] = Ps. aeruginosa Culture No. 6432, Mueller Hinton Agar
[3] = Ps. aeruginosa Culture No. 9191, Mueller Hinton Agar
[4] = E. coli Culture No. 9379, Mueller Hinton Agar
[5] = E. coli Culture No. 9380, Mueller Hinton Agar
[6] = E. coli Culture No. 9451, Mueller Hinton Agar

Row | Structure (SMILES) | MIC (Ps. aeruginosa; [1]) [µg/mL] | MIC (Ps. aeruginosa; [2]) [µg/mL] | MIC (Ps. aeruginosa; [3]) [µg/mL] | MIC (K. oxytoca; 20 h) [µg/mL] | MIC (E. coli; [4]) [µg/mL] | MIC (E. coli; [5]) [µg/mL] | MIC (E. coli; [6]) [µg/mL] | MIC (K.pneumoniae; 20 h) [µg/mL] | MIC (K. oxytoca; K. oxytoca Culture No. 9384, Mueller Hinton Agar, 35°C, 20 hours) [µg/mL] | MIC (K.pneumoniae; K.pneumoniae Culture No. 58, Mueller Hinton Agar, 35°C, 20 hours) [µg/mL]
1 | CC1C(NC(=O)C(=NOC(C)(C)C(=O)O)c2csc(N)n2)C(=O)N1S(=O)(=O)O (stereo not shown) [Compound B, 2-[[[1-(2-amino-4-thiazolyl)-2-[(2-methyl-4-oxo-1-sulfo-3-azetidinyl)amino]-2-oxoethylidene]amino]oxy]-2-methylpropanoic acid] | 8 (≈ 18.4 µM) | 8 (≈ 18.4 µM) | 2 (≈ 4.59 µM) | 0.03 (≈ 0.0689 µM) | 0.03 (≈ 0.0689 µM) | 0.06 (≈ 0.138 µM) | 0.06 (≈ 0.138 µM) | 0.03 (≈ 0.0689 µM) |  | 
2 | COC(=O)OC[C@@H]1[C@H](NC(=O)/C(=N\OCC(=O)O)c2csc(N)n2)C(=O)N1C(=O)NS(=O)(=O)N1CCN(NC(=O)c2cc(=O)c(O)c[nH]2)C1=O (racemic) [Compound A, cis-(±)-3-[2-(2-Amino-4-thiazolyl)-(Z)-2-(carboxy-methoxyimino)acetamido]-1-[(5-hydroxy-4-pyridon-2-yl)carbonylamino-1-(2-imidazolidone-3-yl)sulfonylaminocarbonyl]-4-[(methoxycarbonyl)-oxymethyl]-2-azetidinone, dipotassium salt] | 4 | 1 | 4 |  | ≤ 0.015 | ≤ 0.015 | ≤ 0.015 |  | 0.06 | 1
